The results in this text go back to patent US7511123B2, “Immuno-interactive fragments of the alpha-C subunit of inhibin” (Prince Henry's Institute of Medical Research, priority 1999, dated 2009).

Experiment [1] concerns R1. In words: Solid phase binding of Set 2 peptides to R1. Set-up: species or system mouse; key: +++; ΦΦΦ strong effect; +, Φ weak effect. Conditions: Set 2 biotinylated peptides 24 micromoles/L. The method, then:
(§1) The binding of the 41 biotinylated peptides as set forth in Table 7 (peptide set 2) to the mouse monoclonal antibodies (PO# series) was assessed as follows:
(§2) a) Assay 1 (solid phase assay). The assay was undertaken as outlined in assay 1 of Example 2. Biotinylated peptides (24 micromoles/L) were initially bound to streptavidin-coated plates. Mab (at an appropriate dilution to give a detectable response, 1:1000, 1:10000 dilution of the culture medium) was then added and incubated for 1.5 hr. The amount of bound Mab was determined using horseradish peroxidase-bound anti-mouse IgG serum and enzyme activity detected at 450-630 nm using an ELISA plate reader.

Experiment [2] deals with R1. Nature of the experiment: RIA of Set 2 peptides with R1. The note with it: Set 2 biotinylated peptides 0.8 and 0.08 micromoles/L. It counts as binding, mouse. Set-up: key: ΦΦΦ strong effect; +, Φ weak effect; a) limited binding. On the procedure:
The binding of the 41 biotinylated peptides as set forth in Table 7 (peptide set 2) to the mouse monoclonal antibodies (PO# series) was assessed as follows: b) Assay 2 (radioimrnunoassay, RIA) using iodinated human inhibin A as tracer. Mabs (at an appropriate dilution, see above) were incubated with iodinated human recombinant inhibin in the presence of biotinylated peptides (0.8 and 0.08 micromoles/L final concentration) overnight at room temperature.

In the next experiment the test system is PO-6. In words: Solid phase binding of Set 2 peptides to PO-6. Details: species or system mouse; key: +++; ΦΦΦ strong effect; +, Φ weak effect. The note with it: Set 2 biotinylated peptides 24 micromoles/L. On the procedure:
as §1, §2

The subject of a further experiment is As#128 and/or As#41. Nature of the experiment: Inhibin IFMA with pre-immunoabsorption of antisera by peptides. The format is binding, sheep. An excerpt: This IFMA is used in the measurement of inhibin in serum from women with ovarian cancer and is presented at this juncture as a reference to the following procedures. The IFMA is a sandwich antibody assay in 96-well microtiter plates. The capture antiserum is As #128 and the labeled antiserum As #41, both raised in sheep to the alpha subunit of human inhibin. Sheep As #128 was also boosted with human recombinant 30-kDa inhibin. The microtiter plates were coated with a caprylic acid IgG cut of antiserum #128. Inhibin standard and serum samples were added and incubated for 2 hours at room temperature. A biotinylated antiserum (As #41) which has been immunopurified by absorption to a column of bovine (alpha)C subunit fusion protein (as previously described, Robertson et al., 1997, supra) followed by elution with a glycine (pH 2.5) buffer, was added to bind to the antibody-bound inhibin (2-hour incubation at room temperature). Fluorescently (Eu) labeled-streptavidin that has a high affinity for biotin is added (30 minutes at room temperature) and the Eu-bound streptavidin is counted in a time-resolved fluorimeter. The Eu measured is proportional to the inhibin bound by the two antisera.
As another approach, the competition of combinations of peptides at a maximum saturating dose was assessed in the IFMA (FIGS. 7-9). […] This suppression in binding provides a measure of the contribution of that particular epitope to the assay.

SGSG WSPSALRLLQRPPE [Peptide 5]: the “R1 SPB” value in the experiment on R1 [1] was “+”. In addition, the “R1 RIA” value in the experiment with R1 [2] is recorded as “ΦΦΦ”. Moreover, the “PO-6 SPB” value in the experiment with PO-6 is recorded as “+++”. Moreover, the “% suppression at 2ng inhibin” value came out at 67% with As#128 and/or As#41 (As#41 label pre-absorbed with peptide, As#128 coating antibody: buffer); 55% in the experiment on As#128 and/or As#41 (As#128 coating antibody pre-absorbed with peptide(s), As#41 label: buffer); 73% in the experiment with As#128 and/or As#41 (both antisera pre-absorbed, label gives peptide(s) on As#128 coating first, then on As#41 label).
